Activity calls are given as the source filed them. No cut-off for these calls is given here.
Experiments:
[1] = molecular target: Homeodomain-interacting protein kinase 2 (Homo sapiens) (UniProt Q9H2X6); assay: HIPK2 SGC Tm panel (DSF); details: for ΔTm: Compound concentration 10.0 uM
[2] = molecular target: Histamine H2 receptor (Homo sapiens) (UniProt P25021); details: Compound concentration 10.0 uM
[3] = molecular target: T1, Bone morphogenetic protein receptor type-2 (Homo sapiens) (UniProt Q13873); assay: BMPR2 SGC Tm panel (DSF); details: for ΔTm: Compound concentration 10.0 uM
T1 sequence (whole entry): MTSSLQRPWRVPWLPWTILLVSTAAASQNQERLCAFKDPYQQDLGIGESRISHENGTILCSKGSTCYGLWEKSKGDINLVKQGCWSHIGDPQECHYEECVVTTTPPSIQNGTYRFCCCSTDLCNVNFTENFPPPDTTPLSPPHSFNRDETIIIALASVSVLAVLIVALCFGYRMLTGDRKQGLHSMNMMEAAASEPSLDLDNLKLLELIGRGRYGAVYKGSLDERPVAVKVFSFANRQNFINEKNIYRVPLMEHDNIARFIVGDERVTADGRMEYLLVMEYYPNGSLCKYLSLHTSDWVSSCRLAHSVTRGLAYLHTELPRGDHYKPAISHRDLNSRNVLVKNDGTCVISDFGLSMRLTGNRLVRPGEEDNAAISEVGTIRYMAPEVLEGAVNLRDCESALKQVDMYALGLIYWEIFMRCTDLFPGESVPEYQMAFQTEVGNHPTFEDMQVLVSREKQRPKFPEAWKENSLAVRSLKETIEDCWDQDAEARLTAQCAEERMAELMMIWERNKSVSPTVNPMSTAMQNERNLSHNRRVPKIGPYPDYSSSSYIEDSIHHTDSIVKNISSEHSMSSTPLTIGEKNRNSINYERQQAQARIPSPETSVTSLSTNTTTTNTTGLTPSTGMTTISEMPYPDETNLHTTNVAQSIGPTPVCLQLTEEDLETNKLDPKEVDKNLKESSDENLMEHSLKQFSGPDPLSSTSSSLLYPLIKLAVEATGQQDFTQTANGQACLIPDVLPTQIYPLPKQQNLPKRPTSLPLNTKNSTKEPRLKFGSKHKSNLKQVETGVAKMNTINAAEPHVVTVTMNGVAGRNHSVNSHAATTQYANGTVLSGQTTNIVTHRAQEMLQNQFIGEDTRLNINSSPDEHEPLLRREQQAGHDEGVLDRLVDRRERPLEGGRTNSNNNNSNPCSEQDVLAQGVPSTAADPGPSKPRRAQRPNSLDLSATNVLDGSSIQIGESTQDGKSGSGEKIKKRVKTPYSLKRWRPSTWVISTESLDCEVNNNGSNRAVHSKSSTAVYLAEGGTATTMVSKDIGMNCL

[4] = molecular target: Serine/threonine-protein kinase 24 (Homo sapiens) (UniProt Q9Y6E0); assay: MST3 SGC Tm panel (DSF); details: for ΔTm: Compound concentration 10.0 uM
[5] = molecular target: T2, 5-hydroxytryptamine receptor 3A (Homo sapiens) (UniProt P46098); details: Compound concentration 10.0 uM
T2 sequence (whole entry): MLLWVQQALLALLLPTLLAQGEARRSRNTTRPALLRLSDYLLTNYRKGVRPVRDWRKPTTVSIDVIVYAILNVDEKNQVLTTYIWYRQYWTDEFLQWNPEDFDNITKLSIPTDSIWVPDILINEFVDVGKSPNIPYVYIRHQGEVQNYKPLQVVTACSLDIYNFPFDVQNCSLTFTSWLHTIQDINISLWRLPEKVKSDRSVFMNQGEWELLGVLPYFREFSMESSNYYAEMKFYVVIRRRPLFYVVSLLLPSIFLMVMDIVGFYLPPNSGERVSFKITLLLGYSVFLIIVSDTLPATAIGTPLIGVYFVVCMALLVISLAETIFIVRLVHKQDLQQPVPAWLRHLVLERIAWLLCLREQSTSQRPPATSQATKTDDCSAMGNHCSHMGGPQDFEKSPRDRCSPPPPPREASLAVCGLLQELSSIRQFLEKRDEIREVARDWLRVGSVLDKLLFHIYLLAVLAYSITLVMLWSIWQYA

[6] = molecular target: Transcription initiation factor TFIID subunit 1 (Homo sapiens) (UniProt P21675); assay: TAF1 SGC Tm panel (DSF); details: for ΔTm: Compound concentration 10.0 uM
[7] = molecular target: High affinity cGMP-specific 3',5'-cyclic phosphodiesterase 9A (Homo sapiens, UniProt O76083); assay: 3H-cAMP and 3H-cGMP Scintillation Proximity Assay (PDE9A)
[8] = molecular target: High affinity cGMP-specific 3',5'-cyclic phosphodiesterase 9A (Mus musculus, UniProt O70628); assay: Cellular PDE9A assay; assay type: functional
[9] = molecular target: T3, Serine/threonine-protein kinase tousled-like 1 (Homo sapiens) (UniProt Q9UKI8); assay: TLK1 SGC Tm panel (DSF); details: for ΔTm: Compound concentration 10.0 uM
T3 sequence (whole entry): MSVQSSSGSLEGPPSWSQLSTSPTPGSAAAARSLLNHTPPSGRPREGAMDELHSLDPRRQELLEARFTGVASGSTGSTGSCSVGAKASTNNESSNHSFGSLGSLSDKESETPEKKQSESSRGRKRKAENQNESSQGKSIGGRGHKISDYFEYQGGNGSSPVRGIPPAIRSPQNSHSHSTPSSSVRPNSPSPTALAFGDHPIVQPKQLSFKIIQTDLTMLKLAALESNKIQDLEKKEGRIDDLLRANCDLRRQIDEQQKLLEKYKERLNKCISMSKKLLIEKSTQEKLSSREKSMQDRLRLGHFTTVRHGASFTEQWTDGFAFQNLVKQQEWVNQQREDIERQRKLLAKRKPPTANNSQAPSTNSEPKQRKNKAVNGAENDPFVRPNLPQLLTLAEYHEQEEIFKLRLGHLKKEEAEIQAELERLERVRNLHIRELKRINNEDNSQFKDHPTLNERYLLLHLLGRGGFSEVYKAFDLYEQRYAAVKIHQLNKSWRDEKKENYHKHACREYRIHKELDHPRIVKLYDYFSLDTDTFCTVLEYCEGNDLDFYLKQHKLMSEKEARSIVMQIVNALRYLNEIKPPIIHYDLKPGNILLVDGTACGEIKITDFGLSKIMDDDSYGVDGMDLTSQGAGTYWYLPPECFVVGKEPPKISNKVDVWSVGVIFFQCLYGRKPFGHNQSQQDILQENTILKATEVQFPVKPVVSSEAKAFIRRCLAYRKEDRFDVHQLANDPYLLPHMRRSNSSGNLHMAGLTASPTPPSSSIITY

Serine/threonine-protein kinase 24 (Homo sapiens), sequence (Q9Y6E0 whole entry, looked up): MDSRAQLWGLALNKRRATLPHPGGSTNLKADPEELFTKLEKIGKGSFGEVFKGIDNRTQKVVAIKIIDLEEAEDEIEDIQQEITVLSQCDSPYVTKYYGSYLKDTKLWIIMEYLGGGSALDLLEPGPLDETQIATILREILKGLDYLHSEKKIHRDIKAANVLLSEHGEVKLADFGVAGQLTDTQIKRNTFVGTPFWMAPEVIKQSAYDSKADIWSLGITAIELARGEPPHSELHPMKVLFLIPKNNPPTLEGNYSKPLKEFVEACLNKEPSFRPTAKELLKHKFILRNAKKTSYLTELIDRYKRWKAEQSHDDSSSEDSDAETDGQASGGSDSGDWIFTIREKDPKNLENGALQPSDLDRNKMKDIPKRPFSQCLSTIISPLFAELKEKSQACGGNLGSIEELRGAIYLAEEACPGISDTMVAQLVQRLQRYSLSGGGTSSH
Homeodomain-interacting protein kinase 2 (Homo sapiens), sequence (Q9H2X6 whole entry, looked up): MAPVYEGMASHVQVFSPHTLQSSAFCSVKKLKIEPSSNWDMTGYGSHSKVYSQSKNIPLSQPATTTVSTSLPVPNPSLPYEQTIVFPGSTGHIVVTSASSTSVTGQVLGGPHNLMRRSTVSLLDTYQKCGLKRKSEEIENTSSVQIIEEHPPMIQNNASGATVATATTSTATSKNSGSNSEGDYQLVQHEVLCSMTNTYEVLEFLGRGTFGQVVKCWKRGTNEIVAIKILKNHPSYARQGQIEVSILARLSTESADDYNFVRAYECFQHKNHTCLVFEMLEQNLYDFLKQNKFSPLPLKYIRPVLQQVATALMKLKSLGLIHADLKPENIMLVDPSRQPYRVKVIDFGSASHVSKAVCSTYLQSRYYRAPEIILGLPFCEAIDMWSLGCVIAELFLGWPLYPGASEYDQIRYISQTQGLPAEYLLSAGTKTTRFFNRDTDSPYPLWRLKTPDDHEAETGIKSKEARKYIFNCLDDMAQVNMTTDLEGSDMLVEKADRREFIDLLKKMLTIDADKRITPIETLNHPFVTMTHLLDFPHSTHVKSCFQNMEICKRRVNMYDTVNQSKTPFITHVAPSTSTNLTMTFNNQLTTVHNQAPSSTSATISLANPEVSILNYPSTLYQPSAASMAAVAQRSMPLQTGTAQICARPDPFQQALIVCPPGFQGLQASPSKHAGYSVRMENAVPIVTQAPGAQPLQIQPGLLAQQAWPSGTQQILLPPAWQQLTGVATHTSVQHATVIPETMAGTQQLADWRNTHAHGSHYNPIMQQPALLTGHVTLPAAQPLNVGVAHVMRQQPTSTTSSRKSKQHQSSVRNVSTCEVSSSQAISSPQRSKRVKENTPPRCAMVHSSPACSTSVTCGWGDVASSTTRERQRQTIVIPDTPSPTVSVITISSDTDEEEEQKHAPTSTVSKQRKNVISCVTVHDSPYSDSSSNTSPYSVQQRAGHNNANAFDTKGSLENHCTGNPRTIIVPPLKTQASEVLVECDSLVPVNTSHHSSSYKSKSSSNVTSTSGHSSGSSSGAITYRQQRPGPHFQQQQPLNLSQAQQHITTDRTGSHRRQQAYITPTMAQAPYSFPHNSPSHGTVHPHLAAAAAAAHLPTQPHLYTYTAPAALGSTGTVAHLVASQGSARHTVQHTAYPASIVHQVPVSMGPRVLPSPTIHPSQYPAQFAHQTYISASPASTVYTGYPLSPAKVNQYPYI
Histamine H2 receptor (Homo sapiens), sequence (P25021 whole entry): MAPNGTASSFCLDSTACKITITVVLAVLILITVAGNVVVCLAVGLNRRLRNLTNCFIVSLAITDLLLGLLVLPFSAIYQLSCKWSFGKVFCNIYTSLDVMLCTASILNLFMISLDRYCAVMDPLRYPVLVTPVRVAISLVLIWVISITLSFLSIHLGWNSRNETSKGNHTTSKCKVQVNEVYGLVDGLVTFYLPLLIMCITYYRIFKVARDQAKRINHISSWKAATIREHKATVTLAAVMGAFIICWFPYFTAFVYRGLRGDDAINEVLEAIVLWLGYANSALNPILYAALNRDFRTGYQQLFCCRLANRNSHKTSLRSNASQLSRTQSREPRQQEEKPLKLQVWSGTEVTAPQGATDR
Transcription initiation factor TFIID subunit 1 (Homo sapiens), sequence (P21675 whole entry): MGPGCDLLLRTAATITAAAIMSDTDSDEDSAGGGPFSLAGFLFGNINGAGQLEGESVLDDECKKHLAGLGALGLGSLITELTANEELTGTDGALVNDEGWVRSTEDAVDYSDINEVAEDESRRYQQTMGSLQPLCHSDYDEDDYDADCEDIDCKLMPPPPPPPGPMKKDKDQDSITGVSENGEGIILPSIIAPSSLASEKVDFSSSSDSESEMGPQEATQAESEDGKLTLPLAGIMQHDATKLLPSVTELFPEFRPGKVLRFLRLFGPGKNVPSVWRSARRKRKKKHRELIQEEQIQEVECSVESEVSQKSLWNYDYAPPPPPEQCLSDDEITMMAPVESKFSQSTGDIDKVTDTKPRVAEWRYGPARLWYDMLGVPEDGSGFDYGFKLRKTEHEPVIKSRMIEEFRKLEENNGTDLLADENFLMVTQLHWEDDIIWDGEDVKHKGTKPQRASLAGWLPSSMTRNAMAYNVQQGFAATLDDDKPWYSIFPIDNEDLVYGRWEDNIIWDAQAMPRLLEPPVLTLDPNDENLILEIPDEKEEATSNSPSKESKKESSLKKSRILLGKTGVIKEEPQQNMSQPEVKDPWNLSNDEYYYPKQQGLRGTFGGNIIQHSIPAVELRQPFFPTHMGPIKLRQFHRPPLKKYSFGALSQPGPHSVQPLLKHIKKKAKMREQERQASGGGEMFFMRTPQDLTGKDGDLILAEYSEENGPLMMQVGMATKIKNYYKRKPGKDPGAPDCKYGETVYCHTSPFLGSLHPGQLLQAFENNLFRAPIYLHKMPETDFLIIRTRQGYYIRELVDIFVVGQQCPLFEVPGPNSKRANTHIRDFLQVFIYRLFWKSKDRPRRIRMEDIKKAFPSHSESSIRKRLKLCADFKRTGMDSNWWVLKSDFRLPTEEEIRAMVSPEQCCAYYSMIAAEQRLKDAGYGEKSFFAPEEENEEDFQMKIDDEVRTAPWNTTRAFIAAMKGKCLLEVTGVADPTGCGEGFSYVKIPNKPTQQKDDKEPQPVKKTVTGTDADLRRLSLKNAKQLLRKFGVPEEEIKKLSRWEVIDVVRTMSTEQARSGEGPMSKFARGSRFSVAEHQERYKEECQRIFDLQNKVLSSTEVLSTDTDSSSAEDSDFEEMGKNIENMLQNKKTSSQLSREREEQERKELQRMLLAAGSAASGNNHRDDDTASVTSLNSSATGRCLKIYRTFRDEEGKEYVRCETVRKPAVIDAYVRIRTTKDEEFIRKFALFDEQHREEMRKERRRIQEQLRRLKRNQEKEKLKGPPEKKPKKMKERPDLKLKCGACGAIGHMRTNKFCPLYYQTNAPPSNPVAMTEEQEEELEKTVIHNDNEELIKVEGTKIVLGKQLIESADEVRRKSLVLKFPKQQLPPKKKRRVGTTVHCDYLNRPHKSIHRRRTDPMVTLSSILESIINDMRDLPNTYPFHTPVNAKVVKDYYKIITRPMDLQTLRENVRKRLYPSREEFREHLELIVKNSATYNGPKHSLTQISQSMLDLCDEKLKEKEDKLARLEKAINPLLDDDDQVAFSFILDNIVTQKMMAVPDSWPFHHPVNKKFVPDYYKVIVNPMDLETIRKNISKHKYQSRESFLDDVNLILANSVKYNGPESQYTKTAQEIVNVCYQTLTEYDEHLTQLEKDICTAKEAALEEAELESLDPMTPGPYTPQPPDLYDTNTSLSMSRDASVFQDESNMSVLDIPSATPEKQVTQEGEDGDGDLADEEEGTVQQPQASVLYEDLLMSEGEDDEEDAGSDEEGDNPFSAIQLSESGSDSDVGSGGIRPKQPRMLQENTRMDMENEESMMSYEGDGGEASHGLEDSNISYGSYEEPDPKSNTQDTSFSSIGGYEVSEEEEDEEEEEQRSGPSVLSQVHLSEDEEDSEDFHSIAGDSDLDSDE
High affinity cGMP-specific 3',5'-cyclic phosphodiesterase 9A (Homo sapiens, UniProt O76083), sequence (O76083 whole entry): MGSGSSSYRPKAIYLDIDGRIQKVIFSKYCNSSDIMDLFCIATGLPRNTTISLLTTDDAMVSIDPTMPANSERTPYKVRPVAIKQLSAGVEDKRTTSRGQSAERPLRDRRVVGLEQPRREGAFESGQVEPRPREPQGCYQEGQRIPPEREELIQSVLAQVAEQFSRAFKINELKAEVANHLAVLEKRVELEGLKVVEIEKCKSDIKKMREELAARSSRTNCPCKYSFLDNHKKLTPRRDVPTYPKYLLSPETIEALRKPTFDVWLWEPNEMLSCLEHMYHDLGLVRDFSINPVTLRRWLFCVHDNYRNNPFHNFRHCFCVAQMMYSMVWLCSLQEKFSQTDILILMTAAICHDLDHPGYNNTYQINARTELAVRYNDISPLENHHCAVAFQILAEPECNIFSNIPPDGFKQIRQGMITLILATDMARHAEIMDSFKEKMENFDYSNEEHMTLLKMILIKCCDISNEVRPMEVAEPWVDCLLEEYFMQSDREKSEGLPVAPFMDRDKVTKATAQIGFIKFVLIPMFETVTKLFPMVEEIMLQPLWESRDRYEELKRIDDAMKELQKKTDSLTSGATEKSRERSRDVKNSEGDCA
High affinity cGMP-specific 3',5'-cyclic phosphodiesterase 9A (Mus musculus, UniProt O70628), sequence (O70628 whole entry): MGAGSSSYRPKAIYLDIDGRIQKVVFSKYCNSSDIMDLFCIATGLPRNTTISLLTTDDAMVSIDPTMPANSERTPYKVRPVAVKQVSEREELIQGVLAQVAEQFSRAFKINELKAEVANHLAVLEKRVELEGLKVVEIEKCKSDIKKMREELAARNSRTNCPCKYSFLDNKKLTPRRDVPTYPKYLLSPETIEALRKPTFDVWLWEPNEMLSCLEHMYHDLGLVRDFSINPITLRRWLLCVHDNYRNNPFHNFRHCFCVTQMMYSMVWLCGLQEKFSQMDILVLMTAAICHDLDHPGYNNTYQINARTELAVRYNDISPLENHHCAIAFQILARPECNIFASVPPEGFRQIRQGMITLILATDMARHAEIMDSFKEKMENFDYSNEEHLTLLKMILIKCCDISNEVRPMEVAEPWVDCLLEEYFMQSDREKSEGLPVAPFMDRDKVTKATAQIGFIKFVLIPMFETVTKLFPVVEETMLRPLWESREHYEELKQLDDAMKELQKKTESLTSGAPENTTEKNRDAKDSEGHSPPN

| SMILES | delta Tm Staurosporine positive control [1] | ΔTm [1] | inhibition [2] [%] | delta Tm Staurosporine positive control [3] | ΔTm [3] | delta Tm Staurosporine positive control [4] | ΔTm [4] | inhibition [5] [%] | delta Tm Staurosporine positive control [6] | ΔTm [6] | IC50 [7] | EC50 [8] | delta Tm Staurosporine positive control [9] | ΔTm [9] |
| --- | --- | --- | --- | --- | --- | --- | --- | --- | --- | --- | --- | --- | --- | --- |
| CCC[C@@H]1CNCc2c1[nH]c(=O)c(C#N)c2N1CCC2(CC1)CC2 | 4.23 | -0.297 | 25.3 | 3.02 | 0.0735 | 7.85 | -2.14 | 5.44 | 0.516 | 0.967 | > 10 µM (not active) | > 10 µM (not active) | 9.74 | -1.18 |
| CCC[C@H]1CNCc2c1[nH]c(=O)c(C#N)c2N1CCC2(CC1)CC2 | 4.23 | -0.31 | 32.7 | 3.02 | 0.146 | 7.85 | -2.08 | 7.4 | 0.516 | 1.56 | 0.015 µM (active) | 0.995 µM (active) | 9.74 | -1.34 |
